Assay: isobaric coefficient of expansion
Conditions: Liquid, DSC

CCCCCCCCCCCCC [tridecane]
isobaric coefficient of expansion
Conditions | 288.15 K | 298.15 K | 308.15 K | 318.15 K | 328.15 K | 338.15 K | 348.15 K
5000 kPa | 0.00088 1/K | 0.000891 1/K | 0.000905 1/K | 0.000919 1/K | 0.000936 1/K | 0.000958 1/K | 0.00098 1/K
10000 kPa | 0.00086 1/K | 0.000868 1/K | 0.00088 1/K | 0.000892 1/K | 0.000903 1/K | 0.000917 1/K | 0.000935 1/K
15000 kPa | 0.00084 1/K | 0.00085 1/K | 0.000858 1/K | 0.000865 1/K | 0.00087 1/K | 0.000882 1/K | 0.000896 1/K
20000 kPa | 0.000827 1/K | 0.000828 1/K | 0.000835 1/K | 0.000838 1/K | 0.000844 1/K | 0.000853 1/K | 0.000863 1/K
25000 kPa | 0.000811 1/K | 0.000812 1/K | 0.000814 1/K | 0.000818 1/K | 0.00082 1/K | 0.000827 1/K | 0.000833 1/K
30000 kPa | 0.000796 1/K | 0.000799 1/K | 0.000796 1/K | 0.000799 1/K | 0.0008 1/K | 0.000801 1/K | 0.000807 1/K
35000 kPa | 0.000777 1/K | 0.000782 1/K | 0.000781 1/K | 0.000781 1/K | 0.000782 1/K | 0.000783 1/K | 0.000784 1/K
40000 kPa | 0.000772 1/K | 0.000771 1/K | 0.000765 1/K | 0.000763 1/K | 0.000761 1/K | 0.000761 1/K | 0.000756 1/K
45000 kPa | 0.000754 1/K | 0.000755 1/K | 0.00075 1/K | 0.000748 1/K | 0.000745 1/K | 0.000741 1/K | 0.000741 1/K
50000 kPa | 0.000744 1/K | 0.000744 1/K | 0.000735 1/K | 0.000734 1/K | 0.000728 1/K | 0.000728 1/K | 0.000723 1/K
55000 kPa | 0.000722 1/K | 0.000725 1/K | 0.000718 1/K | 0.000718 1/K | 0.000714 1/K | 0.000714 1/K | 0.000709 1/K

CCCCCCCCCCC [undecane]
isobaric coefficient of expansion
Conditions | 278.15 K | 288.15 K | 298.15 K | 308.15 K | 318.15 K | 328.15 K | 338.15 K | 348.15 K
5000 kPa | 0.000936 1/K | 0.000948 1/K | 0.000965 1/K | 0.000979 1/K | 0.000993 1/K | 0.00101 1/K | 0.00102 1/K | 0.00103 1/K
10000 kPa | 0.000913 1/K | 0.000924 1/K | 0.000937 1/K | 0.00095 1/K | 0.00096 1/K | 0.000971 1/K | 0.000983 1/K | 0.000991 1/K
15000 kPa | 0.000893 1/K | 0.0009 1/K | 0.000912 1/K | 0.000921 1/K | 0.000933 1/K | 0.00094 1/K | 0.000946 1/K | 0.000948 1/K
20000 kPa | 0.000873 1/K | 0.000879 1/K | 0.00089 1/K | 0.000897 1/K | 0.000901 1/K | 0.000909 1/K | 0.000915 1/K | 0.000917 1/K
25000 kPa | 0.000854 1/K | 0.000856 1/K | 0.000865 1/K | 0.00087 1/K | 0.000874 1/K | 0.000884 1/K | 0.000888 1/K | 0.00089 1/K
30000 kPa | 0.000836 1/K | 0.000843 1/K | 0.000845 1/K | 0.000848 1/K | 0.000851 1/K | 0.000857 1/K | 0.00086 1/K | 0.000859 1/K
35000 kPa | 0.000819 1/K | 0.00082 1/K | 0.000825 1/K | 0.000828 1/K | 0.000829 1/K | 0.000833 1/K | 0.000834 1/K | 0.000833 1/K
40000 kPa | 0.000797 1/K | 0.000801 1/K | 0.000805 1/K | 0.000806 1/K | 0.000808 1/K | 0.000806 1/K | 0.00081 1/K | 0.00081 1/K
45000 kPa | 0.000785 1/K | 0.000787 1/K | 0.00079 1/K | 0.000789 1/K | 0.000787 1/K | 0.00079 1/K | 0.000789 1/K | 0.000787 1/K
50000 kPa | 0.000773 1/K | 0.000773 1/K | 0.000773 1/K | 0.000774 1/K | 0.000775 1/K | 0.000775 1/K | 0.000771 1/K | 0.000769 1/K
55000 kPa | 0.000765 1/K | 0.000756 1/K | 0.000759 1/K | 0.000759 1/K | 0.000758 1/K | 0.000759 1/K | 0.000754 1/K | 0.000752 1/K
